Assay results reported in patent US8637504B2, “Sulfur-containing heterocyclic derivative having beta secretase inhibitory activity” (Shionogi & Co., Ltd., priority 2008, dated 2014).
Read-outs that look alike come from different tables or passages of the source.

Target: Recombinant human BACE-1 (Homo sapiens (Human), UniProt P56817)
Assay: Assay of β-secretase-inhibiting activity
[1] = Recombinant human BACE-1 7.4 nM, substrate peptide 18 nM, pH 5.0, 30° C. 3 hours

Recombinant human BACE-1, sequence (P56817 46-501): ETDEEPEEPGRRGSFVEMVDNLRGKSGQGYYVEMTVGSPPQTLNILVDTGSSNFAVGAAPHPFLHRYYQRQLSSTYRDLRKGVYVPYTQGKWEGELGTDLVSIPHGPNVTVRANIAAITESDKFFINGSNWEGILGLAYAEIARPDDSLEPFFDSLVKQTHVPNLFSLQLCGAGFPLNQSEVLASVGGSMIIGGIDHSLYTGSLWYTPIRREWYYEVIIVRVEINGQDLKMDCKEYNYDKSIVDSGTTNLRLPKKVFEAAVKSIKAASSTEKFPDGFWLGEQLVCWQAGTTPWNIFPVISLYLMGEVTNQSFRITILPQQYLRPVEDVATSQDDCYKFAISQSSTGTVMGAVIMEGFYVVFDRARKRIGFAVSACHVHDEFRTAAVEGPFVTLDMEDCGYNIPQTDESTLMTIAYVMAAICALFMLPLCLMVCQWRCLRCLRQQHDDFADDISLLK

IC50 | IC50 [1] | SMILES
≤ 1000 nM |  | COCCOc1cnc(C(=O)Nc2cccc(C3(C4CCCCC4)CSC(N)=N3)c2)cn1 (stereo not shown) [Compound 1]
 | 966 nM | NC1=NC(c2cccc(NC(=O)c3ccc(O)cn3)c2)(C2CCCCC2)CS1 (stereo not shown) [Compound 3]
≤ 1000 nM |  | COc1ccc(C2(c3cccc(NC(=O)c4ncc(Cl)cc4Cl)c3)CSC(N)=N2)cc1 (stereo not shown) [Compound 4]
≤ 1000 nM |  | COc1ccc(C2(c3cccc(NC(=O)c4cnc(O)cn4)c3)CSC(N)=N2)cc1 (stereo not shown) [Compound 5]
≤ 1000 nM |  | Cc1cnc(C(=O)Nc2ccc(F)c([C@]3(C)C=CSC(N)=N3)c2)cn1 [Compound 12]
≤ 1000 nM |  | COc1cnc(C(=O)Nc2ccc(F)c([C@]3(C)C=CSC(N)=N3)c2)cn1 [Compound 13]
≤ 1000 nM |  | C#CCOc1cnc(C(=O)Nc2ccc(F)c([C@]3(C)C=CSC(N)=N3)c2)cn1 [Compound 14]
≤ 1000 nM |  | Cc1nc(C(=O)Nc2ccc(F)c([C@]3(C)C=CSC(N)=N3)c2)co1 [Compound 15]
 | 10 nM | C[C@@]1(c2cc(NC(=O)c3ccc(Cl)cn3)ccc2F)C=CSC(N)=N1 [Compound 16]
≤ 1000 nM |  | COc1cnc(C(=O)Nc2ccc(F)c([C@]3(C)C=C(c4ccccc4)SC(N)=N3)c2)cn1 [Compound 18]
≤ 1000 nM |  | Cc1cnc(C(=O)Nc2ccc(F)c([C@]3(C)C=C(c4ccccc4)SC(N)=N3)c2)cn1 [Compound 19]
 | 95 nM | CC(C)=C1C[C@@](C)(c2cc(NC(=O)c3cnc(C)cn3)ccc2F)N=C(N)S1 [Compound 20]
 | 19 nM | COc1cnc(C(=O)Nc2ccc(F)c([C@]3(C)CC(=C(C)C)SC(N)=N3)c2)cn1 [Compound 21]
 | 572 nM | COc1cnc(C(=O)Nc2ccc(F)c([C@@]3(C)N=C(N)SC=C3C)c2)cn1 [Compound 22]
 | 54 nM | C#CCOc1cnc(C(=O)Nc2ccc(F)c([C@@]3(C)N=C(N)SC=C3C)c2)cn1 [Compound 24]
≤ 1000 nM |  | COc1cnc(C(=O)Nc2ccc(F)c([C@]3(C)C=C(C)SC(N)=N3)c2)cn1 [Compound 25]
≤ 1000 nM |  | C#CCOc1cnc(C(=O)Nc2ccc(F)c([C@]3(C)C=C(C)SC(N)=N3)c2)cn1 [Compound 26]
≤ 1000 nM |  | COc1cnc(C(=O)Nc2cccc([C@]3(C)C=CSC(N)=N3)c2)cn1 [Compound 28]
≤ 1000 nM |  | C#CCOc1cnc(C(=O)Nc2cccc([C@]3(C)C=CSC(N)=N3)c2)cn1 [Compound 29]
≤ 1000 nM |  | C[C@@]1(c2cccc(NC(=O)c3ccc(C#N)cn3)c2)C=CSC(N)=N1 [Compound 30]
≤ 1000 nM |  | C[C@@]1(c2cc(NC(=O)c3cnc(OCCF)cn3)ccc2F)C=CSC(N)=N1 [Compound 31]
 | 73 nM | COCCOc1ccc(C(=O)Nc2ccc(F)c([C@]3(C)C=CSC(N)=N3)c2)nc1 [Compound 33]
≤ 1000 nM |  | COCCOc1cnc(C(=O)Nc2ccc(F)c([C@]3(C)C=CSC(N)=N3)c2)cn1 [Compound 34]
≤ 1000 nM |  | C[C@@]1(c2cc(NC(=O)c3cnc(-c4ccc[nH]4)cn3)ccc2F)C=CSC(N)=N1 [Compound 36]
≤ 1000 nM |  | COc1cnc(C(=O)Nc2ccc(F)c([C@]3(C)C=CSC(N)=N3)c2)c(N)n1 [Compound 37]
 | 97 nM | C[C@@]1(c2cc(NC(=O)c3ccc(-c4ccc[nH]4)cn3)ccc2F)C=CSC(N)=N1 [Compound 39]
 | 2130 nM | Cc1cnc(C(=O)Nc2cccc(C3(C(F)(F)F)CCSC(N)=N3)c2)cn1 (stereo not shown) [Compound 44]

IC50 | IC50 [1] | SMILES
≤ 1000 nM |  | NC1=NC(c2cccc(NC(=O)c3ncc(Cl)cc3Cl)c2)(C(F)(F)F)CCS1 (stereo not shown) [Compound 45]
 | 611 nM | NC1=NC(c2cccc(NC(=O)c3cnc(OCCF)cn3)c2)(C(F)(F)F)CCS1 (stereo not shown) [Compound 46]
 | 91 nM | N#Cc1ccc(C(=O)Nc2cccc(C3(C(F)(F)F)CCSC(N)=N3)c2)nc1 (stereo not shown) [Compound 47]
 | 273 nM | COc1cnc(C(=O)Nc2cccc(C3(C(F)(F)F)CCSC(N)=N3)c2)cn1 (stereo not shown) [Compound 48]
≤ 1000 nM |  | C#CCOc1cnc(C(=O)Nc2cccc(C3(C(F)(F)F)CCSC(N)=N3)c2)cn1 (stereo not shown) [Compound 49]
≤ 1000 nM |  | C=C1C[C@@](C)(c2cc(NC(=O)c3ccc(C#N)cn3)ccc2F)N=C(N)S1 [Compound 50]
 | 16 nM | C=C1C[C@@](C)(c2cc(NC(=O)c3cnc(OC)cn3)ccc2F)N=C(N)S1 [Compound 51]
≤ 1000 nM |  | C=C1C[C@@](C)(c2cc(NC(=O)c3ncc(Cl)cc3Cl)ccc2F)N=C(N)S1 [Compound 52]
≤ 1000 nM |  | C[C@@]1(c2cc(NC(=O)c3ccc(C#N)cn3)ccc2F)C/C(=C/CO)SC(N)=N1 [Compound 54]
≤ 1000 nM |  | CC(C)(O)/C=C1/C[C@@](C)(c2cc(NC(=O)c3ccc(C#N)cn3)ccc2F)N=C(N)S1 [Compound 55]
 | 352 nM | NC1=NC(c2cccc(F)c2)(c2cccc(NC(=O)c3ncc(Cl)cc3Cl)c2)CS1 (stereo not shown) [Compound 56]
≤ 1000 nM |  | NC1=NC(c2ccc(OC(F)(F)F)cc2)(c2cccc(NC(=O)c3ncc(Cl)cc3Cl)c2)CS1 (stereo not shown) [Compound 57]
 | 186 nM | COc1ccc(C2(c3cccc(NC(=O)c4ncc(Cl)cc4Cl)c3)CSC(N)=N2)cc1O (stereo not shown) [Compound 58]
 | 19 nM | C[C@@]1(c2cc(NC(=O)c3ncc(C#N)cc3Cl)ccc2F)C=CSC(N)=N1 [Compound 59]
 | 296 nM | C[C@@]1(c2cc(NC(=O)c3cnc(NS(C)(=O)=O)cn3)ccc2F)C=CSC(N)=N1 [Compound 66]
 | 250 nM | C[C@@]1(c2cc(NC(=O)c3cnc(-n4ccnn4)cn3)ccc2F)C=CSC(N)=N1 [Compound 72]
 | 234 nM | C[C@@]1(c2cc(NC(=O)c3cnc(-n4nccn4)cn3)ccc2F)C=CSC(N)=N1 [Compound 73]
≤ 1000 nM |  | Cc1ncn(-c2cnc(C(=O)Nc3ccc(F)c([C@]4(C)C=CSC(N)=N4)c3)cn2)n1 [Compound 74]
 | 697 nM | Cc1ncnn1-c1cnc(C(=O)Nc2ccc(F)c([C@]3(C)C=CSC(N)=N3)c2)cn1 [Compound 75]
≤ 1000 nM |  | C[C@@]1(c2cc(NC(=O)c3ncc(F)cc3F)ccc2F)C=CSC(N)=N1 [Compound 77]
≤ 1000 nM |  | C[C@@]1(c2cc(NC(=O)c3ncc(C#N)cn3)ccc2F)C=CSC(N)=N1 [Compound 78]
 | 24 nM | C[C@@]1(c2cc(NC(=O)c3ncc(Br)cn3)ccc2F)C=CSC(N)=N1 [Compound 79]
≤ 1000 nM |  | C[C@@]1(c2cc(NC(=O)c3ncc(Cl)cn3)ccc2F)C=CSC(N)=N1 [Compound 80]
 | 7 nM | Cc1c(C(=O)Nc2ccc(F)c([C@]3(C)C=CSC(N)=N3)c2)oc2ccc(Br)cc12 [Compound 81]
≤ 1000 nM |  | C[C@@]1(c2cc(NC(=O)c3ncc(C#N)cc3F)ccc2F)C=CSC(N)=N1 [Compound 84]
≤ 1000 nM |  | C/C(CO)=C1\C[C@@](C)(c2cc(NC(=O)c3ccc(C#N)cn3)ccc2F)N=C(N)S1 [Compound 85]
≤ 1000 nM |  | C/C(=C1\C[C@@](C)(c2cc(NC(=O)c3ccc(C#N)cn3)ccc2F)N=C(N)S1)C(F)F [Compound 94]

SMILES | IC50 | IC50 [1]
CC1=C[C@@](C)(c2cc(NC(=O)c3ccc(C#N)cn3)ccc2F)N=C(N)S1 [Compound 27] | ≤ 1000 nM | 
C=C1C[C@@](C)(c2cc(NC(=O)c3cnc(C)cn3)ccc2F)N=C(N)S1 [Compound 53] |  | 76 nM
C[C@@]1(c2cc(NC(=O)c3cnc(OCc4ncc[nH]4)cn3)ccc2F)C=CSC(N)=N1 [Compound 61] |  | 169 nM
C[C@@]1(c2cc(NC(=O)c3ccc(F)cn3)ccc2F)C=CSC(N)=N1 [Compound 76] |  | 62 nM
